The results in this text go back to US20260241013A1, “TARGETED PROTEIN DEGRADATION USING PRODRUGS OF BIFUNCTIONAL COMPOUNDS THAT BIND UBIQUITIN LIGASE AND A TARGET MCL-1 PROTEIN” (Captor Therapeutics S.A., priority 2022, published 2026).

Holding throughout (format): cell-based
For one series, the target named is T1, MCL-1 protein (Homo sapiens, UniProt Q07820).
T1 construct: endogenous in cells; host or cells: MV4-11
The series is described as follows: MCL-1 protein degradation in MV4-11 cells, Western blot. Particulars: 6 hours; for MCL-1 protein abundance: MV4-11, % of DMSO control; for MCL-1 protein degradation (Western blot, in words): MV4-11 cells. The method, then:
MV4-11 cells were maintained in IMDM medium, supplemented with penicillin/streptomycin and 10% Fetal Bovine Serum (FBS). MV4-11 cells were collected, centrifuged (250 rcf, 5 min), resuspended in a growth medium containing 10% FBS and counted. The cell suspension was then adjusted to 1×10^6 cells/ml using a growth medium containing 10% FBS. Afterwards, 0.5×10^6 cells were seeded on 24-well plates in 0.5 mL of medium per well. Immediately after seeding, cells were pre-treated for 30 minutes with DMSO or pan-caspase inhibitor—Q-VD-Oph. Next, compounds from stocks pre-diluted in DMSO were added directly to the cell culture medium in appropriate concentrations (the final DMSO concentration was 0.5%). Following the 6 hours treatment with the compounds, cells were collected from the plates and suspended in a lysis buffer (2% SDS, 50 mM Tris, pH 8.0, 100 U/ml Pierce Universal Nuclease for Cell Lysis, complete EDTA-free Protease Inhibitor Cocktail) and incubated on ice for 45 min. The amount of protein was determined via BCA assay, and an equal quantity of each sample was loaded on the precast gel for protein separation. After the antibody staining for MCL-1, α-tubulin, and cleaved forms of PARP and caspase 3, the membranes were washed and signals developed.
Densitometric values for MCL-1 were normalized to total protein level (stain-free membrane). [%] of protein reduction is calculated in comparison to the cells treated with DMSO, which stand for 0%.
(In western blotting, separated proteins are transferred to a membrane and probed.)

The test system of another series is MV4-11 cells. The series is described as follows: Cell viability assay (CellTiter-Glo, CTG protocol), MV4-11. The conditions noted are these: Homo sapiens, MV4-11 (MCL-1 dependent AML line), 24 hours incubation, 1% FBS, read-out: Average pCC50 by molecule MV4-11 (converted). The text has this:
(§1) The effect of various compounds of the invention on the viability of MV4-11 and ARH-77 cell lines was investigated, using the CTG protocol described below.
(§2) MV4-11 cell lines are derived from acute myeloid leukaemia and it is described in the literature as a MCL-1 dependent cell line, as opposed to lymphoblast-like ARH-77 cell line, which is described as independent of MCL-1 (Tron A E et al. Nat Commun. 2018; 9: 5341; Caenepeel S et al. Cancer Discov. 2018 December; 8(12): 1582-1597).
(§3) Cells (MV4-11 or ARH-77) were seeded on […] in a growth medium with 1% FBS. Next, compound stocks were pre-diluted in DMSO and added directly to the cell culture media (final DMSO concentration: 0.5%). Compound concentrations used in this assay: 1/3 dilutions starting at 30 μM (9 to 12 points). After 24 hours of incubation, cell viability was evaluated using CellTiter-Gob® Luminescent Cell Viability Assay (Promega, cat #G7572). The luminescence signal was measured using a CLARIOstar Plus Multi-Mode Microplate Reader (574-590 nm).
(§4) Results were normalized to DMSO control. Collected data were analyzed using GraphPad Prism to calculate pCC50 values (i.e. the negative log of the CC50 value). CC50 (50% cytotoxic concentration) is the effective concentration of a cytotoxic compound, which produces 50% of the maximum possible cell death (i.e. the concentration of the compound which is required in order to reduce cell viability by 50%). CC50 is often used rather than IC50 in cell toxicity assays.

In the next series the target is T2, CRBN (Homo sapiens, UniProt Q96SW2).
T2 construct: host or cells: HEK293 (NanoLuc CRBN HEK293 cells)
T2 sequence (Q96SW2 whole entry): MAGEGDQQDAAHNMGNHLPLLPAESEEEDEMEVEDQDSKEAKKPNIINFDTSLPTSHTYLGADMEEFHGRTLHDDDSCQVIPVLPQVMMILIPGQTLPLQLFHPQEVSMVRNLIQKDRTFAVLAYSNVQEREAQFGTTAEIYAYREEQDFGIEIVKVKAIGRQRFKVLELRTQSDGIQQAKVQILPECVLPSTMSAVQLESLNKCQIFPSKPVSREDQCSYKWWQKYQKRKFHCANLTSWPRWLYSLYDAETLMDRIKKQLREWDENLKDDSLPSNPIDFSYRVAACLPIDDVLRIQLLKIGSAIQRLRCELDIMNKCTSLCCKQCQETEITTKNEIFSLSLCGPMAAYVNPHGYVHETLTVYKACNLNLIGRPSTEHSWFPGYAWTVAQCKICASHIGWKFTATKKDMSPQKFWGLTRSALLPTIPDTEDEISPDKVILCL
In words: NanoBRET In-cell CRBN Target Engagement Assay (live and lytic mode), NanoLuc CRBN HEK293 cells. The protocol:
Commercially available, NanoBRET In-cell CRBN Target Engagement Assay (NanoBRET CRBN TE Assay), which uses NanoLuc CRBN HEK293 cells and NanoBRET In-cell CRBN Tracer was used (N2910, N2912, PROMEGA) to determine the cell membrane permeability of prodrugs of MCL-1 degraders.
The assay was run in 96-well plate format (cat. 3600, Corning). NanoLuc CRBN HEK293 cells were treated with CRBN Tracer and compounds. Briefly, prepared was cell suspension (0.17×10^6cells/ml) in Opti-MEM without phenol red (Life Technologies). The cells were treated with CRBN Tracer (20× concentrated, 5 μl/well. For the live mode: 0.8 μM and for the lytic: 0.17 μM final concentration) or DMSO vehicle control (20× concentrated, 5 μl/well). Such prepared cells were seeded into the wells of 96-well plate on top of compounds (100× concentrated, 1 μl/well; 11-point 2-fold dilution) pre-plated on them with the help of Echo 555 acoustic dispenser (Labcyte). For the lytic mode assay, Digitonin (0.05 mg/ml, 10× concentrated, 10 μl/well) was added additionally. In the live mode assay, the plate was incubated at 37° C., 5% CO2 for 2 hours, and then at room temperature for 15 minutes to cool down. In the lytic mode assay, there was no incubation. The 3×Complete NanoBRET reagent (50 μl/well) was prepared according to the manufacturer's recommendations, appropriately for live and lytic mode. The plate was incubated for 2 minutes at room temperature and the luminescence and fluorescence readings followed using CLARIOstar Multimode Plate Reader (donor emission RLU—450 nm; acceptor emission RFU—610 nm). RBA value is an indicator of cell membrane permeability (the lower, the better) is calculated from absolute pIC50 (the negative log of the absolute IC50 value when converted to molar) of the live mode assay (pIC50 Live) and the lytic mode assay (pIC50 Lytic).
On the technique in general: In BRET a luciferase serves as donor, and the signal depends on an acceptor being close.

Series [1] in a line: Cell viability assay (CellTiter-Glo, CTG protocol), ARH-77. The conditions noted are these: human, ARH-77 cells (lymphoblast-like), ARH-77 (MCL-1 independent line), 24 hours incubation, 1% FBS, read-out: Average pCC50 by molecule ARH-77 (converted).
Excerpt: as §1, §2, §3, §4
A general note: In ATP-based viability assays light output follows the ATP content of the culture.

Setting [2] is: 1 nM, + Q-VD-Oph (pan-caspase inhibitor).
[3] abbreviates: 10 nM, + Q-VD-Oph (pan-caspase inhibitor).
[4] abbreviates: 100 nM, + Q-VD-Oph (pan-caspase inhibitor).
[5] abbreviates: live mode, intact cells, 2 hours at 37° C., read-out: pIC50 (live) (converted).
[6] abbreviates: lytic mode, digitonin-lysed cells, no incubation, read-out: pIC50 (lytic) (converted).

Where two headings read alike, the source gives them in different places.

T1 sequence (Q07820 whole entry): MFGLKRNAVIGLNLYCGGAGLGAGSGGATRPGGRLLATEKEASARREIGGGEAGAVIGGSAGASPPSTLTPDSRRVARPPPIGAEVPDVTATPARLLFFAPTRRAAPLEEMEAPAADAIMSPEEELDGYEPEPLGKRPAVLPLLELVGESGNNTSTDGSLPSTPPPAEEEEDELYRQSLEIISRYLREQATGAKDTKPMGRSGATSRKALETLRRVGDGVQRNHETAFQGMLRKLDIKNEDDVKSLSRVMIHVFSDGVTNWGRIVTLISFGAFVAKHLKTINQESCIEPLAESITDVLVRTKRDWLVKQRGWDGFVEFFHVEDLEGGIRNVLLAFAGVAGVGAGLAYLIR

For `CC(=O)OCOC(=O)c1c(CCCOc2cccc3cc(F)ccc23)c2ccc(Cl)c(-c3c(C)nn(C)c3C)c2n1CCN1CCN(C(=O)COc2cccc3c2CN(C2CCC(=O)NC2=O)C3=O)CC1` (stereo not shown) [Compound 41, Acetoxymethyl 6-chloro-1-(2-(4-(2-((2-(2,6-dioxopiperidin-3-yl)-1-oxoisoindolin-4-yl)oxy)acetyl)piperazin-1-yl)ethyl)-3-(3-((6-fluoronaphthalen-1-yl)oxy)propyl)-7-(1,3,5-trimethyl-1H-pyrazol-4-yl)-1H-indole-2-carboxylate], the MCL-1 protein abundance result on MCL-1 protein (setting [2]) is “B (Amount of MCL-1 protein >25% and ≤50% calculated as % of DMSO control)”; on MCL-1 protein (setting [3]), “A (Amount of MCL-1 protein ≤25% calculated as % of DMSO control)”; on MCL-1 protein (setting [4]) it was “A (Amount of MCL-1 protein ≤25% calculated as % of DMSO control)”. Besides, the “MCL-1 protein degradation (Western blot, in words)” value on MCL-1 protein (in the presence of apoptosis inhibitor) is recorded as “MCL-1 protein degradation”. For the same molecule, the CC50 with MV4-11 cells is less than 1 nM. Further, the IC50 on CRBN (setting [5]) is 7.94 nM; on CRBN (setting [6]) it was 501 nM. Also, the CC50 at 24 h in series [1] is greater than 10000 nM.
For `Cc1nn(C)c(C)c1-c1c(Cl)ccc2c(CCCOc3cccc4cc(F)ccc34)c(C(=O)OCOC(=O)C(C)(C)C)n(CCN3CCN(C(=O)COc4cccc5c4CN(C4CCC(=O)NC4=O)C5=O)CC3)c12` (stereo not shown) [Compound 69, (6-Chloro-1-{2-[4-(2-{[2-(2,6-dioxopiperidin-3-yl)-1-oxo-2,3-dihydro-1H-isoindol-4-yl]oxy}acetyl)piperazin-1-yl]ethyl}-3-{3-[(6-fluoronaphthalen-1-yl)oxy]propyl}-7-(1,3,5-trimethyl-1H-pyrazol-4-yl)-1H-indole-2-carbonyloxy)methyl 2,2-dimethylpropanoate], the MCL-1 protein abundance entry is “C (Amount of MCL-1 protein >50% and <75% calculated as % of DMSO control)” at MCL-1 protein (setting [2]); “C (Amount of MCL-1 protein >50% and <75% calculated as % of DMSO control)” at MCL-1 protein (1 nM, without Q-VD-Oph); “B (Amount of MCL-1 protein >25% and ≤50% calculated as % of DMSO control)” at MCL-1 protein (setting [3]); “B (Amount of MCL-1 protein >25% and ≤50% calculated as % of DMSO control)” on MCL-1 protein (10 nM, without Q-VD-Oph); “B (Amount of MCL-1 protein >25% and ≤50% calculated as % of DMSO control)” on MCL-1 protein (setting [4]); “A (Amount of MCL-1 protein ≤25% calculated as % of DMSO control)” at MCL-1 protein (100 nM, without Q-VD-Oph). For the same molecule, the “MCL-1 protein degradation (Western blot, in words)” value on MCL-1 protein (apoptosis not blocked) was “MCL-1 protein degradation”. Moreover, the CC50 in the series on MV4-11 cells is less than 10 nM. For the same molecule, the IC50 at CRBN (setting [5]) was 39.8 nM; on CRBN (setting [6]), 6310 nM. Also, in series [1], the CC50 at 24 h is greater than 31600 nM.
Turning to `Cc1nn(C)c(C)c1-c1c(Cl)ccc2c(CCCOc3cccc4cc(F)ccc34)c(C(=O)OCOC(=O)C(C)(C)C)n(CCN3CCN(C(=O)COc4cccc5c4n(C)c(=O)n5C4CCC(=O)NC4=O)CC3)c12` (stereo not shown) [Compound 73, (Pivaloyloxy)methyl 6-chloro-1-(2-(4-(2-((1-(2,6-dioxopiperidin-3-yl)-3-methyl-2-oxo-2,3-dihydro-1H-benzo[d]imidazol-4-yl)oxy)acetyl)piperazin-1-yl)ethyl)-3-(3-((6-fluoronaphthalen-1-yl)oxy)propyl)-7-(1,3,5-trimethyl-1H-pyrazol-4-yl)-1H-indole-2-carboxylate], the CC50 in the series on MV4-11 cells is less than 3.16 nM. In addition, the IC50 at CRBN (setting [5]) was 6.31 nM; at CRBN (setting [6]), 398 nM. Also, the CC50 at 24 h in series [1] is greater than 1000 nM.
On to `Cc1nn(C)c(C)c1-c1c(Cl)ccc2c(CCCOc3cccc4cc(F)ccc34)c(C(=O)OCOC(=O)C(C)(C)C)n(CCN3CCN(C(=O)COc4ccc5c(c4)n(C)c(=O)n5C4CCC(=O)NC4=O)CC3)c12` (stereo not shown) [Compound 74, (Pivaloyloxy)methyl 6-chloro-1-(2-(4-(2-((1-(2,6-dioxopiperidin-3-yl)-3-methyl-2-oxo-2,3-dihydro-1H-benzo[d]imidazol-5-yl)oxy)acetyl)piperazin-1-yl)ethyl)-3-(3-((6-fluoronaphthalen-1-yl)oxy)propyl)-7-(1,3,5-trimethyl-1H-pyrazol-4-yl)-1H-indole-2-carboxylate], for which, in the series with MV4-11 cells, the CC50 was less than 3.16 nM. The values for the IC50 on CRBN (setting [5]) and on CRBN (setting [6]) were 12.6 nM and 316 nM, respectively. The CC50 at 24 h in series [1] was greater than 1000 nM.
On the same counts, the results for `CCOCCOCCOC(=O)OC(C)OC(=O)c1c(CCCOc2cccc3cc(F)ccc23)c2ccc(Cl)c(-c3c(C)nn(C)c3C)c2n1CCN1CCN(C(=O)COc2cccc3c2CN(C2CCC(=O)NC2=O)C3=O)CC1` (stereo not shown) [Compound 101, 4-Oxo-3,5,8,11-tetraoxatridecan-2-yl 6-chloro-1-(2-(4-(2-((2-(2,6-dioxopiperidin-3-yl)-1-oxoisoindolin-4-yl)oxy)acetyl)piperazin-1-yl)ethyl)-3-(3-((6-fluoronaphthalen-1-yl)oxy)propyl)-7-(1,3,5-trimethyl-1H-pyrazol-4-yl)-1H-indole-2-carboxylate] are less than 31.6 nM, 63.1 nM, 794 nM and greater than 31600 nM.
